Experimental findings from ChEMBL document CHEMBL1151510, “Inhibition of matrix metalloproteinases by P1 substituted N-carboxyalkyl dipeptides” (Bioorg Med Chem Lett, 1996) are described below.

For experiment [1], the target named is T1, Stromelysin-1 (Homo sapiens, UniProt P08254).
Experiment [2] deals with T2, 72 kDa type IV collagenase (Homo sapiens, UniProt P08253). The experiment in a line: Inhibition of MMP-2.
Target sequence in this assay (P08253 whole entry): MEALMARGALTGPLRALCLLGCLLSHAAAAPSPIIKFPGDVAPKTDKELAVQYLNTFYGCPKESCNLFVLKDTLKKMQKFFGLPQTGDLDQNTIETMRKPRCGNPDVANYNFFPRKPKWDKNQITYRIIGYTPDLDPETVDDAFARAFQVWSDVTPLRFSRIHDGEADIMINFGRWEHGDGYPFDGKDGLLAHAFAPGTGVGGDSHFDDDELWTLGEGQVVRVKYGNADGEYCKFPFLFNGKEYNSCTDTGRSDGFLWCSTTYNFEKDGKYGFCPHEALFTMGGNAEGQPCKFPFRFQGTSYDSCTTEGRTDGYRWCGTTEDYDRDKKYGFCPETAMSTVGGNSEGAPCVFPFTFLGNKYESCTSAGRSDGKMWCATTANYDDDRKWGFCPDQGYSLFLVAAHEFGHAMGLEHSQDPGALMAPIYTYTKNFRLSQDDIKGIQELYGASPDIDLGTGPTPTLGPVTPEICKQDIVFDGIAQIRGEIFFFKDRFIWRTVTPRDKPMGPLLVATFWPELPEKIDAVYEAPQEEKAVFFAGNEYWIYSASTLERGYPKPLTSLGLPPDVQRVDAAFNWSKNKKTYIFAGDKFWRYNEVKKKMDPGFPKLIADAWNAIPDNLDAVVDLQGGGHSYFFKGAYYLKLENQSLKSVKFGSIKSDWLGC
The target of experiment [3] is T3, Interstitial collagenase (Homo sapiens, UniProt P03956).
T3 sequence (P03956 whole entry): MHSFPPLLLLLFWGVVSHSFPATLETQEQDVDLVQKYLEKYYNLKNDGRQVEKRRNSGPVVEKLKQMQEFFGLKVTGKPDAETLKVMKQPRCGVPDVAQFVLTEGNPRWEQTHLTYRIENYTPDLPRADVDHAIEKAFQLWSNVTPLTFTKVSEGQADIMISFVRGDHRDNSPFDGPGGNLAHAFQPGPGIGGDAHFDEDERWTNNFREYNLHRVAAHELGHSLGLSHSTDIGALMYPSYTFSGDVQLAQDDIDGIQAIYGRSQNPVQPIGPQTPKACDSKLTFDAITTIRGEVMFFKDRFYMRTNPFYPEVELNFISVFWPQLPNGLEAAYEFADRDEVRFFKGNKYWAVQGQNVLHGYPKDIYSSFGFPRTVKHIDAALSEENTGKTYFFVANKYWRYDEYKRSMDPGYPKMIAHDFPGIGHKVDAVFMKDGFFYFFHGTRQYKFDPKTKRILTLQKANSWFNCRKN
Kind of experiment: Inhibition of matrix metalloprotease -1.

In experiment [4] the target is T2, 72 kDa type IV collagenase. Kind of experiment: Inhibition of matrix metalloprotease-2 at 1 uM.
Target sequence in this assay (P08253 110-660 limits assumed): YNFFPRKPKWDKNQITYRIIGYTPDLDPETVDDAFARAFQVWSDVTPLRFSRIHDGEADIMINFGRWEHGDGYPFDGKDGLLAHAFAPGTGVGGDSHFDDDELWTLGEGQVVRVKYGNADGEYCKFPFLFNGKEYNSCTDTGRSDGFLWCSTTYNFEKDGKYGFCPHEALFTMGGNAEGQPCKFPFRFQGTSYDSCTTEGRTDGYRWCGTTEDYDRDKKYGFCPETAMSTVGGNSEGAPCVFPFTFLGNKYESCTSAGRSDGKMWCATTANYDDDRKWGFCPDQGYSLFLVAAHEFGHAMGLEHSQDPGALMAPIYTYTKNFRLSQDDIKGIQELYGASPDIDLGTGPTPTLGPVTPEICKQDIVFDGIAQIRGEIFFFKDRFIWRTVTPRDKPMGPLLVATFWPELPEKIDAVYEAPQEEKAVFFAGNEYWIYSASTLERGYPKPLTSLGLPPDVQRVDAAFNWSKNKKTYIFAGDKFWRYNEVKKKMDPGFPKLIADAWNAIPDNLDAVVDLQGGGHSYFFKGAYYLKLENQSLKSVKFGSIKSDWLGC
Experiment [5] concerns the target T4, Interstitial collagenase (Homo sapiens) (UniProt P03956).
T4 sequence (whole entry): T3 sequence (P03956 whole entry)
The experiment in a line: Inhibition of matrix metalloprotease-1 at 10 uM.

Experiment [6] concerns the target T2, 72 kDa type IV collagenase. Kind of experiment: Inhibition of matrix metalloprotease-2 at 1 uM.
Target sequence in this assay (P08253 110-660 limits assumed): as above
Experiment [7] concerns the target T3, Interstitial collagenase. Kind of experiment: Inhibition of matrix metalloprotease -1.
Experiment [8] deals with T1, Stromelysin-1. Kind of experiment: Inhibition of matrix metalloprotease -3.
The target in experiment [9] is T2, 72 kDa type IV collagenase. The experiment in a line: Inhibition of matrix metalloprotease-2.
Target sequence in this assay (P08253 whole entry): as the sequence (P08253 whole entry) above

T1 sequence (P08254 whole entry): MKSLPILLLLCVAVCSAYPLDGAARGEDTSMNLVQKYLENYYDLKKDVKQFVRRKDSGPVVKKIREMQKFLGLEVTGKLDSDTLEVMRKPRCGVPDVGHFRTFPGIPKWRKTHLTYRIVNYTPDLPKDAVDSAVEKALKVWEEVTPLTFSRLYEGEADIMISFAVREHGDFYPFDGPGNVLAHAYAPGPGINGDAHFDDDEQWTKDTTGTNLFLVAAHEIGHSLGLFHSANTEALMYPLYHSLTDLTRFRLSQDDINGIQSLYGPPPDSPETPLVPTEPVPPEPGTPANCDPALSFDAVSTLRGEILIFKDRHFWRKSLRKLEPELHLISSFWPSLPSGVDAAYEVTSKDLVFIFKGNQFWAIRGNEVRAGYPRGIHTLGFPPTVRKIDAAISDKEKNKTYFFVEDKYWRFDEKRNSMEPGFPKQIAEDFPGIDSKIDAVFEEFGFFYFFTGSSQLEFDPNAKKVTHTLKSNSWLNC

As usually defined, the Ki is a dissociation constant, usually derived from enzyme kinetics or from competition with a known ligand. For the molecule `CCCC[C@@H](N[C@@H](CCc1ccccc1)C(=O)N[C@@H](CC(C)C)C(=O)Nc1ccccc1)C(=O)O`, the Ki at Stromelysin-1 [1] stood at 320 nM; in experiment [2], 1100 nM; on Interstitial collagenase [3], 6800 nM.

By inhibition is commonly meant the relative decrease from the control value, in per cent. Take `CC(C)C[C@H](NC(=O)[C@H](CCc1ccccc1)N[C@H](CCCNC(=O)CCc1ccccc1)C(=O)O)C(=O)Nc1ccccc1`: the figures for the Ki on Stromelysin-1 [1] and at Interstitial collagenase [3] were 9.5 nM and 2200 nM, respectively. This molecule returned an inhibition in [4] of 87%.

For `CC(C)C[C@H](NC(=O)[C@H](CCc1ccccc1)N[C@H](CCCCN1C(=O)c2ccccc2C1=O)C(=O)O)C(=O)Nc1ccccc1`, the Ki at Stromelysin-1 [1] was 8 nM; in [2], 86 nM; on Interstitial collagenase [3], 720 nM.

For `CC(C)C[C@H](NC(=O)[C@H](CCc1ccccc1)N[C@H](CCCNC(=O)CCCc1ccccc1)C(=O)O)C(=O)Nc1ccccc1`, the affinity at Stromelysin-1 [1] corresponds to a Ki of 120 nM. Further, the inhibition is 70% in [4] and 36% in [5].

As to `CC(C)C[C@H](NC(=O)[C@H](CCc1ccccc1)N[C@H](CCCNC(=O)Cc1ccccc1)C(=O)O)C(=O)Nc1ccccc1`, the results for the Ki (on Stromelysin-1 [1]; in experiment [2]; at Interstitial collagenase [3]) were 10 nM, 60 nM and 870 nM, respectively.

As to `CC(C)C[C@H](NC(=O)[C@H](CCc1ccccc1)N[C@H](CCCN1C(=O)c2ccccc2C1=O)C(=O)O)C(=O)Nc1ccccc1`, the inhibitory constant (Ki) at Stromelysin-1 [1] was 140 nM; in experiment [2], 570 nM; at Interstitial collagenase [3], 3400 nM.

As to `CC(C)C[C@H](NC(=O)[C@H](CCc1ccccc1)N[C@H](CCCCNC(=O)Cc1ccccc1)C(=O)O)C(=O)Nc1ccccc1`, the Ki on Stromelysin-1 [1] came to 28 nM; in experiment [2], 70 nM; at Interstitial collagenase [3], 7200 nM.

For `CC(C)C[C@H](NC(=O)[C@H](CCc1ccccc1)N[C@H](CCNC(=O)CCc1ccccc1)C(=O)O)C(=O)Nc1ccccc1`, the results for the Ki on Stromelysin-1 [1] and at Interstitial collagenase [3] were 110 nM and 3330 nM, respectively. This molecule also showed an inhibition in experiment [4] of 41%.

Turning to `CCCCCC[C@@H](N[C@@H](CCc1ccccc1)C(=O)N[C@@H](CC(C)C)C(=O)Nc1ccccc1)C(=O)O`, the Ki on Stromelysin-1 [1] was 530 nM; in experiment [2], 2300 nM. Also, the inhibition in [5] worked out at 43%.

With `CC(C)C[C@H](NC(=O)[C@H](CCc1ccccc1)N[C@H](CCNC(=O)CCCc1ccccc1)C(=O)O)C(=O)Nc1ccccc1`, the Ki at Stromelysin-1 [1] stood at 270 nM; in experiment [2], 770 nM; on Interstitial collagenase [3], 4410 nM.

For the molecule `CC(=O)N1CCCC1C(=O)NCCCC[C@@H](N[C@@H](CCc1ccccc1)C(=O)N[C@@H](CC(C)C)C(=O)Nc1ccccc1)C(=O)O` (stereo partly drawn), the Ki turned out to be 180 nM on Stromelysin-1 [1] and 1100 nM on Interstitial collagenase [3]. Also, the inhibition in experiment [4] amounted to 91%.

Turning to `CC(C)C[C@H](NC(=O)[C@H](CCc1ccccc1)N[C@H](CCN1C(=O)c2ccccc2C1=O)C(=O)O)C(=O)Nc1ccccc1`, the Ki is 33 nM at Stromelysin-1 [1], 20 nM in experiment [2] and 2090 nM on Interstitial collagenase [3].

For the molecule `CC(C)C[C@H](NC(=O)[C@H](CCc1ccccc1)N[C@H](CCNC(=O)Cc1ccccc1)C(=O)O)C(=O)Nc1ccccc1`, the Ki at Stromelysin-1 [1] was 130 nM; at Interstitial collagenase [3], 1790 nM.

Turning to `CC(C)C[C@H](NC(=O)[C@H](CCc1ccccc1)N[C@H](CCCCNC(=O)CCc1ccccc1)C(=O)O)C(=O)Nc1ccccc1`, the results for the Ki at Stromelysin-1 [1] and at Interstitial collagenase [3] were 190 nM and 13000 nM, respectively. The inhibition in experiment [4] was determined as 49%.

On to `CC(C)C[C@H](NC(=O)[C@H](CCc1ccccc1)N[C@H](CCCCN1Cc2ccccc2C1=O)C(=O)O)C(=O)Nc1ccccc1`, for which the Ki turned out to be 12 nM on Stromelysin-1 [1], 110 nM in experiment [2] and 1600 nM on Interstitial collagenase [3].

Consider `CC(C)C[C@H](NC(=O)[C@H](CCc1ccccc1)N[C@H](CCNC(=O)c1ccccc1)C(=O)O)C(=O)Nc1ccccc1`, for which the figures for the Ki at Stromelysin-1 [1] and on Interstitial collagenase [3] were 120 nM and 1090 nM, respectively. The molecule also gave an inhibition in experiment [6] of 72%.

Regarding `CC(C)C[C@H](NC(=O)[C@H](CCc1ccccc1)N[C@H](CCCCc1ccccc1)C(=O)O)C(=O)Nc1ccccc1`, the inhibition constant Ki at Stromelysin-1 [1] was 120 nM; on Interstitial collagenase [3], 72 nM. For the same molecule, the inhibition in experiment [4] was found to be 64%.

As to `CC(C)C[C@H](NC(=O)[C@H](CCc1ccccc1)N[C@H](CCCNC(=O)c1ccccc1)C(=O)O)C(=O)Nc1ccccc1`, on Stromelysin-1 [1], the Ki came to 270 nM. For the same molecule, the inhibition in experiment [4] and in experiment [5] was 50% in each case.

As for `CC(C)C[C@H](NC(=O)[C@H](CCc1ccccc1)N[C@H](CCCCNC(=O)c1ccccc1)C(=O)O)C(=O)Nc1ccccc1`, the figures for the Ki (on Stromelysin-1 [1]; in [2]; on Interstitial collagenase [3]) were 32 nM, 120 nM and 5800 nM, respectively.

As to `CC(C)C[C@H](NC(=O)[C@H](CCc1ccccc1)N[C@H](CCCCCNC(=O)Cc1ccccc1)C(=O)O)C(=O)Nc1ccccc1`, the results for the Ki (on Stromelysin-1 [1]; in [2]; on Interstitial collagenase [3]) were 47 nM, 350 nM and 5810 nM, respectively.

As for `CC[C@@H](N[C@@H](CCc1ccccc1)C(=O)N[C@@H](CC(C)C)C(=O)Nc1ccccc1)C(=O)O`, the Ki on Stromelysin-1 [1] was 350 nM; in [2] it was 1100 nM; on Interstitial collagenase [3], 1800 nM.

With `CNC(=O)[C@H](Cc1ccccc1)NC(=O)[C@H](CC(C)C)N[C@H](CCN1C(=O)c2cc3ccccc3cc2C1=O)C(=O)O`, the values for the Ki (on Interstitial collagenase [7]; on Stromelysin-1 [8]; in experiment [9]) were 5 nM, 20 nM and 91 nM, respectively.

As to `CC(C)C[C@H](NC(=O)[C@H](CCc1ccccc1)N[C@H](CCCCCNC(=O)c1ccccc1)C(=O)O)C(=O)Nc1ccccc1`, the results for the Ki (on Stromelysin-1 [1]; in experiment [2]; at Interstitial collagenase [3]) were 20 nM, 120 nM and 3890 nM, respectively.
